Test results from publication PMC11312998, “Molecular Pro-Apoptotic Activities of Flavanone Derivatives in Cyclodextrin Complexes: New Implications for Anticancer Therapy” (International Journal of Molecular Sciences, 2024).

How the values were obtained:
MDA-MB-231 [1] = assay: Superoxide anion generation, DHE probe; type: cell-based, human; settings: IC50 concentration, 24 h
Method: The level of superoxide anion (O2^•−) was determined by microplate spectrofluorimetry with dihydroethidium (hydroethidine, DHE) (Life Technologies, Carlsbad, CA, USA), which is the most commonly used fluorogenic probe for monitoring the intracellular production of superoxide anion O2^•− [41]. […] Thanks to this shift, DHE can be used as a sensitive probe for cellular ROS. The reaction between superoxide and DHE generates a highly specific red fluorescent product, 2-hydroxyethidium (2-OH-E^+).
The cells were seeded in black 96-well fluorometric microplates at a density of 10 × 10^3 cells per well. […] After incubation, the medium was removed, the cell monolayer in the wells was washed twice with HBSS (140 mM NaCl, 5 mM KCl, 0.8 mM MgCl2, 1.8 mM CaCl2, 1 mM Na2HPO4, 10 mM HEPES and 1% glucose) and 50 μL of DHE solution in HBSS was added to each well (final probe concentration 5 μmol/L). Cells were incubated with the probe for 30 min in the dark in an incubator (37 °C), and then fluorescence was measured. The measurement was performed at the following excitation and fluorescence emission wavelengths: λex = 498 nm/λem = 582 nm. Fluorescence measurements were made on a Perkin-Elmer LS-5B spectrofluorometer (MA, USA). Fluorescence intensity values for control cells were arbitrarily set as 100%. The results are presented as percentages of control cell values, calculated relative to the fluorescence intensity of the controls (100%): sample fluorescence was calculated as Δf in relation to the controls.

[2] = MTT cytotoxicity assay, model of normal cells; type: cell-based; settings: human, HMEC-1 cells (model of normal cells), 24 h incubation, mean ± SEM, read-out: Cytotoxic effect, IC50
Method: (§1) Cell viability was determined using the metabolic microplate spectrophotometric assay with Methylthiazolyl diphenyltetrazolium bromide (MTT), i.e., 3-(4,5-Dimethyl-2-thiazolyl)-2,5-diphenyl-2H-tetrazolium bromide (Sigma-Aldrich; St. Louis, MO, USA). The anticancer activity of the investigated compounds was evaluated in vitro on the basis of their ability to inhibit the proliferation of various cancer cells. The appropriate number of cells for a given cell line (6–8 × 10^3 cells/mL) were seeded into sterile, colorless 96-well microplates. After 24 h of culture, specific wells of the microplate were treated with test compounds (10–200 µmol/L concentration) and incubated in a CO2 incubator for 24 h. The medium was then removed, the cell monolayer was washed twice with sterile PBS solution and fresh culture medium was added to the wells of the microplate.
(§2) After 48 h of cell culture, the MTT test was conducted. In each well of the microplate, 50 µL of tetrazolium salt solution (final concentration 0.05 mg/mL) was added. The microplate was then placed in a CO2 incubator for 3–4 h (depending on the cell line). Following incubation, 100 µL of DMSO (dimethyl sulfoxide, Sigma-Aldrich, St. Louis, MO, USA) was added to the microplate wells to dissolve the purple formazan crystals formed in the environment of living cells. The absorbance of the formazan solution was read at a wavelength of λ = 580 nm and a reference wavelength of λ = 720 nm after gentle mixing (Biotek Power Wave HT, Biotek Instruments, Winooski, VT, USA).
(§3) The percentage of live cells was calculated by comparing the absorbance value of the tested samples with that of the control (cells not treated with compounds). Control absorbance was arbitrarily considered to be 100%.

[3] = system: breast cancer cells (MCF-7, MDA-MB-231 and HCC38) and endometrial cancer cells (Ishikawa, Hec-1-A); assay: MTT cytotoxicity assay, summary over the cell lines; type: cell-based, human; settings: Homo sapiens; range over the five cancer lines; read-out: IC50, range depending on the cancer line
Method: as §1, §2
The percentage of live cells was calculated by comparing the absorbance value of the tested samples with that of the control (cells not treated with compounds). Control absorbance was arbitrarily considered to be 100%. […] Moreover, cisplatin (Sigma-Aldrich, St. Louis, MO, USA) was used as a reference compound, and identical incubation conditions were used as described above.

Hec-1-A = assay: MTT cytotoxicity assay; type: cell-based; settings: Homo sapiens, 24 h incubation, mean ± SEM, read-out: Cytotoxic effect, IC50
Method: as §1, §2, §3
(§4) In order to determine the contribution of ROS to the cytotoxicity of the tested compounds, the cells were pre-incubated for 1 h with the antioxidant vitamin E (Trolox, Sigma-Aldrich; St. Louis, MO, USA). Cells were seeded into sterile, colorless 96-well microplates at a concentration of 6–8 × 10^3 cells/mL, depending on the cell line. After 24 h of culture, Trolox was added at a final concentration of 50 μM/well. After 1 h of incubation, the antioxidant was washed off, then appropriate concentrations of test compounds (10–200 µmol/L concentration) were added to fresh cell culture medium and incubated for 24 h. The MTT test was then performed under identical experimental conditions, as described in Section 3.1.2.

HCC38 = assay: MTT cytotoxicity assay; type: cell-based; settings: Homo sapiens, 24 h incubation, mean ± SEM, read-out: Cytotoxic effect, IC50
Method: as §1, §2, §3, §4

MDA-MB-231 [4] = assay: MTT cytotoxicity assay; type: cell-based; settings: Homo sapiens, 24 h incubation, mean ± SEM, read-out: Cytotoxic effect, IC50
Method: as §1, §2, §3, §4

MCF-7 = assay: MTT cytotoxicity assay; type: cell-based; settings: Homo sapiens, MCF7, 24 h incubation, mean ± SEM, read-out: Cytotoxic effect, IC50
Method: as §1, §2, §3, §4

colon cancer lines = assay: GSH concentration in cancer cells (other studies, not yet published); type: cell-based; settings: results not yet published

Compound | greater superoxide anion level relative to control (DHE probe) (MDA-MB-231 [1]) | IC50 at 24 h [2] [µM] | IC50 [3] [µM] | IC50 (Hec-1-A) [µM] | IC50 (HCC38) [µM] | IC50 (MDA-MB-231 [4]) [µM] | IC50 (MCF-7) [µM] | GSH concentration in cancer cells (in words) (colon cancer lines)
O=C1/C(=C/c2ccccc2)C(c2ccccc2)Oc2ccccc21 (stereo not drawn) [Compound 5] | ~30% | 19.7 ± 3.7 | 18 to 36 | 35.9 ± 2.4 | 25.6 ± 0.9 | 23.3 ± 1.4 | 25.1 ± 4.2 | decrease in GSH concentration
O=C1/C(=C/c2ccccc2)COc2ccccc21 [Compound 1] | approximately 20% | 21.2 ± 3.1 | 10 to 18 | 18.5 ± 1.2 | 15.7 ± 0.8 | 12.6 ± 1.1 | 10.2 ± 0.9 | decrease in GSH concentration
COc1cccc(/C=C2/C(=O)c3ccccc3OC2c2ccccc2)c1 (stereo not drawn) [Compound 3] | approximately 20% | 24.1 ± 1.3 | 15 to 27 | 26.9 ± 2.3 | 20.9 ± 1.5 | 15.2 ± 3.1 | 16.4 ± 2.3 | decrease in GSH concentration
